Source: patent US20170172963A1, “COMPOSITIONS AND METHODS FOR THE PREVENTION AND OR TREATMENT OF SCHISTOSOMIASIS” (DSM IP ASSETS B.V., priority 2014, published 2017)
Several values for one entry are separate records, joined by “and”; a condition that tells them apart may be missing. Equal entries are not always repeated.

Tests used:
Assay type in all cases: in vivo, human
Schistosoma mansoni [1] = test: Example 1: stool egg counts (Kato-Katz, epg) and cure rate in infected school children, Menoufiya; details: for % cure rate: children with 0 epg after week 9
Description: Approximately 2000 school children in villages of three districts in the Menoufiya governorate located about 100 km north of Cairo, Egypt were screened. Two microscopic slides of stool samples were examined for each child on 3 consecutive days by the Kato-Katz method and egg counts per gram (epg) were recorded. 66 children, 44 males and 22 females, 6-15 years old (mean±SD=11.7±1.6), with weight range of 25-52 kg (mean±SD=37.8±8.6), and epg of 24-384 were selected as test subjects. 20 sex, age, and social conditions-matched, parasite-free children were used as controls.
The 66 children were divided randomly into three groups whereby the first group of 20 children were given a single oral dose of Praziquantel (PZQ) (40 mg/kg body weight) on the first day of treatment and a placebo was given for the next three weeks (5 doses/week) (“PZQ-Placebo Treatment”). The PZQ was Distocide (Epico, El-Asher-Men-Ramadan City, Egypt). The placebo was 1 g VegCap, containing corn-soy (DSM Nutritional Products, Columbia, Md.). The second group of 23 children received ARA (10 mg/kg body weight/day) for 15 days over three weeks (5 days/week) (“ARA Treatment”) The ARA was 1 g VegCap (DSM) containing approximately 395 mg ARA/capsule. The third group of 23 children were given Praziquantel (40 mg/kg body weight) in the first day of treatment and then received 15 doses of ARA (10 mg/kg/day; 5 doses/week) (“PZQ+ARA Treatment”).
(§1) Approximately 10 ml blood were obtained from each child 2-3 days before the start of the treatment and 3 days after the end of the ARA (or ARA+PZQ) treatment, corresponding to 18 days after PZQ-only treatment. Stool samples were obtained from each child on 3 consecutive days 1 week after the end of the ARA treatment (corresponding to 4 weeks after the PZQ-only treatment) and 6 weeks after the end of the ARA treatment (corresponding to 9 weeks after the PZQ-only treatment). Epg was assessed on each stool sample.
(§2) Subjects having initial baseline epg counts <100 were classified as having low infection. Subjects having initial baseline epg counts >100 but <400 were classified as having moderate infection. Subjects having initial baseline epg counts >400 were classified as having high infection.

Schistosoma mansoni [2] = test: Example 2: stool egg counts (epg) and cure rate in infected school children, El Kafr Sheikh; parameters: % epg reduction: concentration or dose not given beside the values
Description: School children from El Kafr Sheikh were screened similar to those school children in Example 1 above.
(§3) The children were divided randomly into three groups whereby the first group of children were given a single oral dose of Praziquantel (PZQ) (40 mg/kg body weight) on the first day of treatment and a placebo was given for the next three weeks (5 doses/week) (“PZQ-Placebo Treatment”). The PZQ was Distocide (Epico, El-Asher-Men-Ramadan City, Egypt). The placebo was 1 g VegCap, containing corn-soy (DSM Nutritional Products, Columbia, Md.). The second group of children received ARA (10 mg/kg body weight/day) for 15 days over three weeks (5 days/week) (“ARA Treatment”). The ARA was 1 g VegCap (DSM) containing approximately 395 mg ARA/capsule. The third group of children were given Praziquantel (40 mg/kg body weight) in the first day of treatment and then received 15 doses of ARA (10 mg/kg/day; 5 doses/week) (“PZQ-ARA Treatment”).
as §1, §2

IL-10 = test: Example 2: plasma IL-10 level by capture ELISA after treatment; details: for Median IL-10 after treatment / % reduction in IL-10 levels: plasma; for Median IL-10 after treatment: 3 days after end of ARA treatment (18 days after PZQ); for % reduction in IL-10 levels: after treatment vs baseline
Description: as §3, §1
(§4) Plasma was retrieved from heparinized blood following centrifugation at 400 g for 20 minutes and stored at −76° C. until assayed by capture enzyme-linked immunosorbent assay (ELISA) for levels of IL-10 and IFN-γ (ELISA MAX™ Set, BioLegend, San Diego, Calif.) according to the manufacturer's protocol.

IFN-γ = test: Example 2: plasma IFN-γ level by capture ELISA after treatment; details: for Median IFN-γ after treatment / % reduction in IFN-γ levels: plasma; for Median IFN-γ after treatment: 3 days after end of ARA treatment (18 days after PZQ); for % reduction in IFN-γ levels: after treatment vs baseline
Description: as §3, §1, §4

[3] = low infection (baseline epg < 100)
[4] = moderate and high infection (baseline epg > 100)
[5] = initial baseline epg < 100, mean epg 6 weeks after treatment vs mean baseline epg
[6] = initial baseline epg > 100 and < 400, mean epg 6 weeks after treatment vs mean baseline epg
[7] = initial baseline epg > 400, mean epg 6 weeks after treatment vs mean baseline epg
[8] = low infection, initial baseline epg < 100
[9] = moderate infection, initial baseline epg > 100 and < 400

## O=C(C1CCCCC1)N1CC(=O)N2CCc3ccccc3C2C1 (stereo not drawn) [PZQ, 2-(Cyclohexylcarbonyl)-1,2,3,6,7,11b-hexahydro-4H-pyrazino[2,1-a] isoquinolin-4-one, reference compound]
Schistosoma mansoni [1]; individual subjects with initial baseline epg < 100, stool 4 weeks after PZQ / 1 week after end of ARA, listed as PZQ-Placebo
  epg After Week 4: 8 epg and 0 epg (9×) and 5 epg (2×)
Schistosoma mansoni [1]; individual subjects with initial baseline epg < 100, stool 9 weeks after PZQ / 6 weeks after end of ARA, listed as PZQ-Placebo
  epg After Week 9: 10 epg and 4 epg and 0 epg (10×) and 6 epg and 20 epg
Schistosoma mansoni [1]; individual subjects with initial baseline epg > 100, stool 4 weeks after PZQ / 1 week after end of ARA, listed as PZQ- Placebo
  epg After Week 4: 0 epg (3×) and 16 epg
Schistosoma mansoni [1]; individual subjects with initial baseline epg > 100, stool 9 weeks after PZQ / 6 weeks after end of ARA, listed as PZQ- Placebo
  epg After Week 9: 0 epg (4×) and 10 epg and 30 epg
Schistosoma mansoni [1]; [3]
  % cure rate: 71%
Schistosoma mansoni [1]; [4]
  % cure rate: 67%
Schistosoma mansoni [2]; high infection, initial baseline epg > 400
  % cured: 30 (8/26) %
Schistosoma mansoni [2]; high infection, initial baseline epg > 400, listed as PZQ-Placebo
  % cured: 81%
Schistosoma mansoni [2]; [5]
  % epg reduction: 50%
Schistosoma mansoni [2]; [6]
  % epg reduction: 70%
Schistosoma mansoni [2]; [7]
  % epg reduction: 81%
Schistosoma mansoni [2]; [8]
  % cured: 57 (20/35) %
Schistosoma mansoni [2]; low infection, initial baseline epg < 100, listed as PZQ-Placebo
  % cured: 57%
Schistosoma mansoni [2]; [9]
  % cured: 43 (10/23) %
Schistosoma mansoni [2]; moderate infection, initial baseline epg > 100 and < 400, listed as PZQ-Placebo
  % cured: 70%
IL-10
  Median IL-10 after treatment: 36 pg/mL
  % reduction in IL-10 levels: 42%
IFN-γ
  Median IFN-γ after treatment: 32.5 pg/mL
  % reduction in IFN-γ levels: 60%

## CCCCC/C=C\C/C=C\C/C=C\C/C=C\CCCC(=O)O [ARA, all-cis 5,8,11,14-eicosatetreanoic acid]
Schistosoma mansoni [1]; individual subjects with initial baseline epg < 100, stool 4 weeks after PZQ / 1 week after end of ARA
  epg After Week 4: 12 epg and 0 epg (4×) and 144 epg and 24 epg (2×) and 20 epg and 52 epg and 48 epg and 19 epg
Schistosoma mansoni [1]; individual subjects with initial baseline epg < 100, stool 9 weeks after PZQ / 6 weeks after end of ARA
  epg After Week 9: 0 epg (10×) and 376 epg and 20 epg and 42 epg
Schistosoma mansoni [1]; individual subjects with initial baseline epg > 100, stool 4 weeks after PZQ / 1 week after end of ARA
  epg After Week 4: 240 epg and 96 epg (3×) and 749 epg and 216 epg and 84 epg and 0 epg and 48 epg and 60 epg
Schistosoma mansoni [1]; individual subjects with initial baseline epg > 100, stool 9 weeks after PZQ / 6 weeks after end of ARA
  epg After Week 9: 0 epg (5×) and 108 epg and 48 epg and 28 epg and 20 epg and 152 epg
Schistosoma mansoni [1]; [3]
  % cure rate: 77%
Schistosoma mansoni [1]; [4]
  % cure rate: 50%
Schistosoma mansoni [2]; [5]
  % epg reduction: −2.6%
Schistosoma mansoni [2]; [6]
  % epg reduction: 49%
Schistosoma mansoni [2]; [7]
  % epg reduction: 65%
Schistosoma mansoni [2]; [8]
  % cured: 50% and 50 (22/43) %
Schistosoma mansoni [2]; [9]
  % cured: 49% and 28 (4/19) %
IL-10; after treatment
  levels of circulating IL-10 (result in words): more effective
IL-10
  Median IL-10 after treatment: 40 pg/mL
  % reduction in IL-10 levels: 50%
IFN-γ; after treatment
  levels of circulating IFN-γ (result in words): more effective
IFN-γ
  Median IFN-γ after treatment: 25 pg/mL
  % reduction in IFN-γ levels: 70%
